Target: T1, human insulin (Homo sapiens, UniProt P01308)
T1 construct: purchased SIGMA
Experiment: Human insulin aggregation assay (relative solubility)
Assay type: physicochemical
Conditions: 86 μM insulin : 20 μM RNA (molar ratio […]:1)
Procedure: The insulin aggregation assay was performed in 150 mM Tris-HCl pH 7.5. Aggregation was monitored at 360 nm (excitation: 1 nm bandwidth, emission: 10 nm bandwidth) in macro-cuvettes (1500 μl) with a pathlength of 10 mm. 86 μM human insulin (SIGMA) with or without 20 μM RNA were pre-incubated at 30° C. and the aggregation reaction was started by the addition of dithiothreitol (DTT) to a final concentration of 15 mM.

T1 sequence (P01308 25-54 limits assumed): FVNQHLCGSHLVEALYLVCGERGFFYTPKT

RNA1: GUGGAGGCGCUGUACCUGGUGUGCGGAGAGCGCGGC; fragment of native own mRNA coding for insulin β-chain region VEALYLVCGERG (RNA, backbone not given here)
increase in the relative solubility of insulin: 21%

— US20220411794A1, “RNA OLIGONUCLEOTIDES FOR PREVENTING AGGREGATION OF PROTEINS” (Universitaet Wien, priority 2019, published 2022)
